In patent US8829011B2 (Janssen Pharmaceutica NV, priority 2008, dated 2014) one finds Ki data, which are given here for 20 compounds.

In experiment [1] the target is T1, human recombinant 5-HT2A receptor (Homo sapiens, UniProt P28223).
T1 construct: expressed in transfected cells; host or cells: NIH3T3
Briefly: Affinity for 5-HT2A receptor binding sites (competitive radioligand binding, [3H]ketanserin). The following applies: membranes of NIH3T3 with h5-HT2A, * = tested as hydrochloride salt. On the procedure:
(§1) Stock drug solutions (10 mM) were prepared in DMSO (the final assay concentration of DMSO not exceeding 0.4%). Drug dilutions were prepared in assay buffer.
(§2) Sigmoidal inhibition curves were generated and fitted by nonlinear regression analysis (GraphPad Prism).
(§3) 2. Affinity for 5HT2 Receptor Binding Sites
(§4) Receptor binding was performed using the human recombinant 5-HT2A (GB: X57830), 5-HT2B (GB: Z36748) and 5-HT2C (GB: M81778) receptors. The affinity of the compounds for the 3 different human 5-HT2 receptor subtypes was evaluated by competitive radioligand binding assays using [^3H]ketanserin (h5-HT2A) or [^3H]mesulergine (h5-HT2B and h5-HT2C). The assays were performed on membranes prepared from NIH3T3 stably transfected with h5-HT2A or CHO stably transfected with h5-HT2B and h5-HT2C.

Experiment [2] addresses T2, human recombinant 5-HT2C receptor (Homo sapiens, UniProt P28335).
T2 construct: expressed in transfected cells; host or cells: CHO
T2 sequence (P28335 33-458): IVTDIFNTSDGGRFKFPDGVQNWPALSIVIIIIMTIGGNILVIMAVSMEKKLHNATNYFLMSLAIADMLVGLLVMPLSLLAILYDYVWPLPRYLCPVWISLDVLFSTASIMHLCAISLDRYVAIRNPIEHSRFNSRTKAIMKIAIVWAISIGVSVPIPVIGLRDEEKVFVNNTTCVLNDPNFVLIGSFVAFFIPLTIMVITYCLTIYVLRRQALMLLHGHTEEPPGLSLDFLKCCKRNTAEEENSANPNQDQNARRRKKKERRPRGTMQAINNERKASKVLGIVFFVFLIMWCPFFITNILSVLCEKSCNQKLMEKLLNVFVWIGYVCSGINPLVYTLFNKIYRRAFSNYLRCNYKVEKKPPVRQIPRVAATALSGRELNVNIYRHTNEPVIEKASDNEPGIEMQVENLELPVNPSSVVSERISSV
The experiment in a line: Affinity for 5-HT2C receptor binding sites (competitive radioligand binding, [3H]mesulergine). The following applies: membranes of CHO with h5-HT2C, * = tested as hydrochloride salt. The method, then: as §1, §2, §3, §4

Experiment [3] concerns the target T3, human recombinant 5-HT6 receptor (Homo sapiens, UniProt P50406).
T3 construct: expressed in transfected cells; host or cells: HEK-293
The experiment in a line: Affinity for 5-HT6 receptor binding sites (competitive radioligand binding, [3H]LSD). The following applies: membranes of HEK-293 with h5-HT6, * = tested as hydrochloride salt. On the procedure: as §1, §2
3. Affinity for 5-HT6 Receptor Binding Sites
Receptor binding was performed using the human recombinant 5-HT6 (GB: BC0794995) receptor. The affinity of the compounds for the human 5-HT6 receptor was evaluated by competitive radioligand binding assays using [^3H]LSD. The assays were performed on membranes prepared from HEK-293 stably transfected with h5-HT6. Non-specific binding was estimated in the presence of 1 μM clozapine.

Experiment [4] has as its target T4, human recombinant 5-HT2B receptor (Homo sapiens, UniProt P41595).
T4 construct: expressed in transfected cells; host or cells: CHO
Briefly: Affinity for 5-HT2B receptor binding sites (competitive radioligand binding, [3H]mesulergine). The settings on record: membranes of CHO with h5-HT2B, * = tested as hydrochloride salt. The method, then:
as §1, §2, §3, §4

T1 sequence (P28223 whole entry): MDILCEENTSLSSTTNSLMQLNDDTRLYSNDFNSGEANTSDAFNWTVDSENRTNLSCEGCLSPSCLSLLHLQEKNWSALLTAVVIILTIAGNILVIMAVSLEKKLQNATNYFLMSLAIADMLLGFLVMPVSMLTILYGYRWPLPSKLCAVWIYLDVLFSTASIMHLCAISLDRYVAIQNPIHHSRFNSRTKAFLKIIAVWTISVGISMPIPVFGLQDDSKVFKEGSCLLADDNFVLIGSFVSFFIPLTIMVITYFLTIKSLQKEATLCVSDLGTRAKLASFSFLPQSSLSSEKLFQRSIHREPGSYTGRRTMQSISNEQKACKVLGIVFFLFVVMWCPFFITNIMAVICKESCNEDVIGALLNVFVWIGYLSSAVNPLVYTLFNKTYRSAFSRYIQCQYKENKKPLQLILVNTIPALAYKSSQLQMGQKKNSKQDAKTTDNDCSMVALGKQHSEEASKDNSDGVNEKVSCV
T4 sequence (P41595 whole entry): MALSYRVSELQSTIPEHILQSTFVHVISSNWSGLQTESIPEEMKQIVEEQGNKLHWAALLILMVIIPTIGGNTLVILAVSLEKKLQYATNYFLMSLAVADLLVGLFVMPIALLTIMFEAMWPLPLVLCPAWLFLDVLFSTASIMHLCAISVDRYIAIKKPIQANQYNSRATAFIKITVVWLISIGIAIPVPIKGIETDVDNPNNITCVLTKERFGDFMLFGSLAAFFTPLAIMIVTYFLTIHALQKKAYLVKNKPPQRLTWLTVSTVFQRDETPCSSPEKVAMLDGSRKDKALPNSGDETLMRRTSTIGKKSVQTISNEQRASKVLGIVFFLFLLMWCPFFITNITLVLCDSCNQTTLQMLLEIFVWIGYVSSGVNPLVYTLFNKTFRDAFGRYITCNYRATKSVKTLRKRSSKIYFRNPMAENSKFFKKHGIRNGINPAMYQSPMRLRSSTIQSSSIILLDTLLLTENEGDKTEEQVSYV
T3 sequence (P50406 whole entry): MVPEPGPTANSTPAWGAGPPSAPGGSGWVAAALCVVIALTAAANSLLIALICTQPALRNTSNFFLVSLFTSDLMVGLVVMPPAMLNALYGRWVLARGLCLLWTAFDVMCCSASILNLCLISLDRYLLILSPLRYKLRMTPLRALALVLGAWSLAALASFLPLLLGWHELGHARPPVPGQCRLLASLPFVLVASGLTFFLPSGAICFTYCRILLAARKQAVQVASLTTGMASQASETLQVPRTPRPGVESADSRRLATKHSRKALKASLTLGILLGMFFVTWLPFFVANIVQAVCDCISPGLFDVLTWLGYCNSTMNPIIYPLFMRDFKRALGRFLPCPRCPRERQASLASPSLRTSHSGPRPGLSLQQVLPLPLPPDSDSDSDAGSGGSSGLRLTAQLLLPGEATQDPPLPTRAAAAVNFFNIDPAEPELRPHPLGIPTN

Broadly, the Ki is a dissociation constant, usually derived from enzyme kinetics or from competition with a known ligand. On to `COc1ccc(-c2nc(N3CCCC3C)nc3c2CCNCC3)cc1` (centres unmarked) [Example 80, 6,7,8,9-tetrahydro-4-(4-methoxyphenyl)-2-(2-methyl-1-pyrrolidinyl)-5H-pyrimido[4,5-d]azepine], for which the Ki in experiment [1] is 0.14 µM; in experiment [2], 0.042 µM; in experiment [3], 0.039 µM; in experiment [4] it was 0.006 µM.
As to `C[C@@H]1CCC[C@H](C)N1c1nc2c(c(-c3ccc(Cl)c(F)c3)n1)CCNCC2` [Example 84, 4-(4-chloro-3-fluorophenyl)-2-[(2R,6S)-2,6-dimethyl-1-piperidinyl]-6,7,8,9-tetrahydro-5H-pyrimido[4,5-d]azepine], the Ki came out at 0.13 µM in experiment [1], 0.018 µM in experiment [2], 0.052 µM in experiment [3] and 0.002 µM in experiment [4].
In the case of `Cc1ccc(-c2nc(N3CCC(F)CC3)nc3c2CCNCC3)cc1` [Example 69, 2-(4-fluoro-1-piperidinyl)-6,7,8,9-tetrahydro-4-(4-methylphenyl)-5H-pyrimido[4,5-d]azepine], the Ki is 0.035 µM in experiment [1], 0.005 µM in experiment [2], 0.013 µM in experiment [3] and 0.005 µM in experiment [4].
Regarding `Cc1ccc(-c2nc(N3CCS(=O)(=O)CC3)nc3c2CCNCC3)cc1Cl` [Example 92, 4-(3-Chloro-4-methyl-phenyl)-2-(1,1-dioxo-1λ^6-thiomorpholin-4-yl)-6,7,8,9-tetrahydro-5H-pyrimido[4,5-d]azepine], the Ki is 1.14 µM in experiment [1], 2.04 µM in experiment [2], 0.085 µM in experiment [3] and 0.95 µM in experiment [4].
Take `C[C@@H]1CCC[C@H](C)N1c1nc2c(c(-c3ccc(F)c(F)c3)n1)CCNCC2` [Example 83, 4-(3,4-difluorophenyl)-2-[(2R,6S)-2,6-dimethyl-1-piperidinyl]-6,7,8,9-tetrahydro-5H-pyrimido[4,5-d]azepine]: the Ki in experiment [1] was determined as 0.131 µM; in experiment [2], 0.039 µM; in experiment [3], 0.084 µM; in experiment [4] it was 0.012 µM.
Take `COc1ccc(-c2nc(N3[C@H](C)CCC[C@@H]3C)nc3c2CCNCC3)cc1` [Example 82, 2-[(2R,6S)-2,6-dimethyl-1-piperidinyl]-6,7,8,9-tetrahydro-4-(4-methoxyphenyl)-5H-pyrimido[4,5-d]azepine]: the Ki in experiment [1] was found to be 0.048 µM; in experiment [2] it was 0.017 µM; in experiment [3], 0.035 µM; in experiment [4], 0.003 µM.
The corresponding values for `Clc1ccc(-c2nc(N3CCCCC3)nc3c2CCNCC3)cc1` [Example 74, 4-(4-chlorophenyl)-6,7,8,9-tetrahydro-2-(1-piperidinyl)-5H-pyrimido[4,5-d]azepine] are 0.004 µM, 0.001 µM, 0.046 µM and 0.003 µM.
On to `Cc1ccc(-c2nc(N3CCOC[C@@H]3C)nc3c2CCNCC3)cc1` [Example 94, 6,7,8,9-tetrahydro-2-[(3S)-3-methyl-4-morpholinyl]-4-(4-methylphenyl)-5H-pyrimido[4,5-d]azepine], for which the Ki in experiment [1] was found to be 0.025 µM; in experiment [2], 0.015 µM; in experiment [3], 0.008 µM; in experiment [4] it was 0.015 µM.
In the case of `COc1ccc(-c2nc(N3[C@H](C)CCC[C@@H]3C)nc3c2CCNCC3)cc1F` [Example 89, 2-[(2R,6S)-2,6-dimethyl-1-piperidinyl]-4-(3-fluoro-4-methoxyphenyl)-6,7,8,9-tetrahydro-5H-pyrimido[4,5-d]azepine], the Ki came to 0.18 µM in experiment [1], 0.033 µM in experiment [2], 0.035 µM in experiment [3] and 0.003 µM in experiment [4].
For the compound `Cc1ccc(-c2nc(N3CCOC[C@@H]3C)nc3c2CCNCC3)cc1Cl` [Example 93, 4-(3-chloro-4-methylphenyl)-6,7,8,9-tetrahydro-2-[(3S)-3-methyl-4-morpholinyl]-5H-pyrimido[4,5-d]azepine], the Ki stood at 0.15 µM in experiment [1], 0.028 µM in experiment [2], 0.009 µM in experiment [3] and 0.018 µM in experiment [4].
Regarding `CC(C)c1ccc(-c2nc(N3[C@H](C)CCC[C@@H]3C)nc3c2CCNCC3)cc1` [Example 91, 2-[(2R,6S)-2,6-dimethyl-1-piperidinyl]-6,7,8,9-tetrahydro-4-[4-(1-methylethyl)phenyl]-5H-pyrimido[4,5-d]azepine], the Ki was 0.16 µM in experiment [1], 0.045 µM in experiment [2], 0.041 µM in experiment [3] and 0.006 µM in experiment [4].
With `C[C@H]1COCCN1c1nc2c(c(-c3cc4ccccc4o3)n1)CCNCC2` [Example 98, 4-(2-benzofuranyl)-6,7,8,9-tetrahydro-2-[(3S)-3-methyl-4-morpholinyl]-5H-pyrimido[4,5-d]azepine], the Ki was determined as 0.099 µM in experiment [1], 0.14 µM in experiment [2], 0.013 µM in experiment [3] and 0.025 µM in experiment [4].
For `C[C@@H]1CCC[C@H](C)N1c1nc2c(c(-c3ccc(Cl)c(Cl)c3)n1)CCNCC2` [Example 73, 4-(3,4-dichlorophenyl)-2-[(2R,6S)-2,6-dimethyl-1-piperidinyl]-6,7,8,9-tetrahydro-5H-pyrimido[4,5-d]azepine], the Ki in experiment [1] is 0.17 µM; in experiment [2], 0.038 µM; in experiment [3] it was 0.062 µM; in experiment [4] it was 0.007 µM.
The corresponding values for `Cc1ccc(-c2nc(N3[C@H](C)CCC[C@@H]3C)nc3c2CCNCC3)cn1` [Example 86, 2-[(2R,6S)-2,6-dimethyl-1-piperidinyl]-6,7,8,9-tetrahydro-4-(6-methyl-3-pyridinyl)-5H-pyrimido[4,5-d]azepine] are 0.66 µM, 0.24 µM, 0.08 µM and 0.009 µM.
In the same order, the values of `FC1CCN(c2nc3c(c(-c4ccc(Cl)cc4)n2)CCNCC3)CC1` [Example 68, 4-(4-chlorophenyl)-2-(4-fluoro-1-piperidinyl)-6,7,8,9-tetrahydro-5H-pyrimido[4,5-d]azepine] are 0.019 µM, 0.005 µM, 0.029 µM and 0.006 µM.
In the same order, the values of `Cc1ccc(-c2nc(N3CCOC[C@@H]3C)nc3c2CCNCC3)cc1F` [Example 97, 4-(3-fluoro-4-methylphenyl)-6,7,8,9-tetrahydro-2-[(3S)-3-methyl-4-morpholinyl]-5H-pyrimido[4,5-d]azepine] are 0.4 µM, 0.092 µM, 0.023 µM and 0.039 µM.
With `Cc1ccc(-c2nc(N3[C@H](C)CCC[C@@H]3C)nc3c2CCNCC3)cc1F` [Example 85, 2-[(2R,6S)-2,6-dimethyl-1-piperidinyl]-4-(3-fluoro-4-methylphenyl)-6,7,8,9-tetrahydro-5H-pyrimido[4,5-d]azepine], the Ki was 0.045 µM in experiment [1], 0.015 µM in experiment [2], 0.031 µM in experiment [3] and 0.002 µM in experiment [4].
Consider `C[C@@H]1COCCN1c1nc2c(c(-c3cnc4ccccc4c3)n1)CCNCC2` [Example 99, 6,7,8,9-tetrahydro-2-[(3R)-3-methyl-4-morpholinyl]-4-(3-quinolinyl)-5H-pyrimido[4,5-d]azepine], for which the Ki in experiment [1] came out at 1.44 µM; in experiment [2], 0.49 µM; in experiment [3], 0.03 µM; in experiment [4], 0.28 µM.
For the compound `Cc1ccc(-c2nc(N3[C@H](C)CCC[C@@H]3C)nc3c2CCNCC3)cc1` [Example 71, 2-[(2R,6S)-2,6-dimethyl-1-piperidinyl]-6,7,8,9-tetrahydro-4-(4-methylphenyl)-5H-pyrimido[4,5-d]azepine], the Ki in experiment [1] is 0.036 µM; in experiment [2] it was 0.009 µM; in experiment [3], 0.019 µM; in experiment [4], 0.001 µM.
The corresponding values for `Cc1ccc(-c2nc(N3CCOC[C@H]3C)nc3c2CCNCC3)cc1` [Example 100, 6,7,8,9-tetrahydro-2-[(3R)-3-methyl-4-morpholinyl]-4-(4-methylphenyl)-5H-pyrimido[4,5-d]azepine] are 0.021 µM, 0.004 µM, 0.006 µM and 0.008 µM.
